Our source for the LD50 values is patent publication US4308274A, “N-Alkylsulfonyl-, N-arylsulfonyl-, and N-aminosulfonylaminosulfinylcarbamate esters” (priority 1979, dated 1981).

Like-named read-outs stand apart in the source and are kept apart here. A value given as a limit tells only on which side of the number the result lay.

The nature of data set [1]: mammalian toxicity against Swiss white mice (oral). The following applies: mouse, in vivo, corn oil carrier. Here is the method: Mammalian toxicity was determined against Swiss white mice.
The test system of data set [2] is house flies, Musca domestica. The experiment in a line: insecticidal activity against house flies (topical, 24 hours mortality). The settings on record: read-out: House flies LD50. It is filed as in vivo. Here is the method: Representative carbamate esters of the invention were tested for insecticidal activity against house flies, Musca domestica. Stock 1% concentrated solutions for each of the test compounds were made in acetone, and such solutions diluted with acetone to a concentration of 0.001-0.1%. House flies were treated topically on the notum by 1 μl of each of the diluted acetone solutions and percent mortality was counted 24 hours after application. The insects were held at a constant temperature of 60° F. Results are given in μg/g.

Where [3] appears, read: topical on the notum, 1 μl acetone solution, percent mortality 24 hours after application, 60° F.

As to `CN(C(=O)Oc1cccc2ccccc12)[S+]([O-])N(C)S(=O)(=O)c1ccccc1` (stereo not drawn) [IV, 1-naphthyl N-(N'-benzenesulfonyl-N'-methylaminosulfinyl)-N-methylcarbamate], the LD50 is above 500 mg/kg in data set [1] and 450 mg/kg in data set [2] (topical, 24 h).
Consider `CCCCN(CCCC)S(=O)(=O)N(C)[S+]([O-])N(C)C(=O)ON=C(C)SC` (stereo not drawn) [Example XII, S-methyl N-[N'-(N"-dibutylaminosulfonyl-N"-methylaminosulfinyl)-N'-methylcarbamoyloxy]thioacetimidate], for which the LD50 in data set [1] was determined as 100 mg/kg; in data set [2] (setting [3]) it was 9 mg/kg.
With `CCCCN(CCCC)S(=O)(=O)N(C)[S+]([O-])N(C)C(=O)Oc1cccc2c1OC(C)(C)C2` (stereo not drawn) [Example IX, 2,3-dihydro-2,2-dimethylbenzofuranyl-7 N-(N'-dibutylaminosulfonyl-N'-methylaminosulfinyl)-N-methylcarbamate], the LD50 in data set [1] was found to be 25 mg/kg; in data set [2] (topical, 24 h), 12 mg/kg.
On to `CN(C(=O)Oc1cccc2c1OC(C)(C)C2)[S+]([O-])N(C)S(=O)(=O)N1CCOCC1` (stereo not drawn) [Example X, 2,3-Dihydro-2,2-dimethylbenzofuranyl-7N-[N'-(N"-morpholinosulfonyl)-N'-methylaminosulfinyl]N-methylcarbamate], for which the LD50 in data set [2] (topical, 24 h) was found to be 13 mg/kg.
Regarding `CN(C(=O)Oc1cccc2c1OC(C)(C)C2)[S+]([O-])N(C)S(=O)(=O)c1ccccc1` (stereo not drawn) [Example I, 2,3-dihydro-2,2-dimethylbenzofuranyl-7N-(N'-benzenesulfonyl-N'-methylaminosulfinyl)-N-methylcarbamate], the LD50 in data set [1] turned out to be 35 mg/kg; in data set [2] (topical, 24 h), 9.5 mg/kg.
In the case of `CSC(C)=NOC(=O)N(C)[S+]([O-])N(C)S(=O)(=O)c1ccccc1` (stereo not drawn) [V, S-methyl N-[N'-(N"-benzenesulfonyl-N"-methylaminosulfinyl)-N'-methylcarbamoyloxy]thioacetimidate], the LD50 was 86 mg/kg in data set [1] and 17.5 mg/kg in data set [2] (setting [3]).
Regarding `CCN([S+]([O-])N(C)C(=O)ON=C(C)SC)S(C)(=O)=O` (stereo not drawn) [VIII, S-methyl N-[N'-(N"-methanesulfonyl-N"-ethylaminosulfinyl)-N'-methylcarbamoyloxy]thioacetimidate], the results for the LD50 in data set [1] and in data set [2] (setting [3]) were 250 mg/kg and 25 mg/kg, respectively.
As for `CC(C)Oc1ccccc1OC(=O)N(C)[S+]([O-])N(C)S(=O)(=O)c1ccccc1` (stereo not drawn) [II, 2-isopropoxyphenyl N-(N'-benzenesulfonyl-N'-methylaminosulfinyl)-N-methylcarbamate], the LD50 was 250 mg/kg in data set [1] and 55 mg/kg in data set [2] (topical, 24 h).
On the same counts, the results for `CC(C)c1cccc(OC(=O)N(C)[S+]([O-])N(C)S(=O)(=O)c2ccccc2)c1` (stereo not drawn) [III, 3-isopropylphenyl N-(N'-benzenesulfonyl-N'-methylaminosulfinyl)-N-methylcarbamate] are 150 mg/kg and 95 mg/kg.
Regarding `CCN([S+]([O-])N(C)C(=O)Oc1cccc2c1OC(C)(C)C2)S(C)(=O)=O` (stereo not drawn) [VI, 2,3-dihydro-2,2-dimethylbenzofuranyl-7 N-(N'-methanesulfonyl-N'-ethylaminosulfinyl)-N-methylcarbamate], in data set [2] (topical, 24 h), the LD50 was 12.5 mg/kg.
In the case of `CCN([S+]([O-])N(C)C(=O)Oc1cccc2c1OC(C)(C)C2)S(=O)(=O)N1CCOCC1` (stereo not drawn) [Example XI, 2,3-Dihydro-2,2-dimethylbenzofuranyl-7-N-(N'-morpholinosulfonyl-N'-ethylaminosulfinyl)-N-methylcarbamate], the LD50 in data set [2] (topical, 24 h) was found to be 10 mg/kg.
In the case of `CCN([S+]([O-])N(C)C(=O)Oc1cccc(C(C)C)c1)S(C)(=O)=O` (stereo not drawn) [VII, 3-isopropylphenyl N-(N'-methanesulfonyl-N'-ethylaminosulfinyl)-N-methylcarbamate], the LD50 is 200 mg/kg in data set [1] and 90 mg/kg in data set [2] (topical, 24 h).
